Assay results taken from patent US20080096922A1, “Novel Sulfonamide derivative” (Dainippon Sumitomo Pharma Co., Ltd., priority 2004, published 2008).

What was measured:
[1] = tested on: LDL receptor; assay: Effects on an activity of a LDL receptor: uptake amount of DiI-LDL into HepG2 cell; assay type: cell-based, human; details: 10 μM, control group as 100%
Method: The 1,1′-dioctadecyl-3,3,3′,3′-tetramethylindocarbocyanine perchlorate (DiI)-labeled LDL (DiI-LDL) was prepared as follows. That is, a DiI (Invitrogen Corp., U.S.A) was mixed with a human LDL (Chemicon International, Inc., U.S.A) and the mixture was incubated at 37° C. for 8 hours. […] After centrifugation, the DiI-labeled LDL fraction was separated and dialyzed with a physiological saline to prepare the above desired solution.
The effects on a LDL receptor activity were determined as the uptake amount of DiI-LDL into HepG2 cell. The cultured human hepatic cell line HepG2 cell was purchased from the Dainippon Pharmaceuticals Co. Ltd. (Osaka, Japan). The HepG2 cells were seeded in a 96 well plate and were incubated in the Dulbecco's modified Eagle/F-12 (DMEM/F-12) medium containing 10% fetal bovine serum and antibiotics in a CO2 incubator at 37° C. for two to three days. After washing the cells, a DMEM/F-12 medium containing 5-10% lipoprotein-deficient serum, the test substrate and the antibiotics were added thereto and the cells were incubated at 37° C. for 19 hours. After adding DiI-LDL, the cells were incubated in a CO2 incubator at 37° C. for another 5 hours. The uptake amount of non-specific DiI-LDL was measured by adding 30 to 50 folds amount of the non-labeled LDL. After washing the cells with Dulbecco's phosphate buffer (Sigma Corp., U.S.A.), the Dulbecco's phosphate buffer was added to each well and then the uptake amount of DiI-LDL into the cell line were measured as the value of fluorescence. After measuring the fluorescence, the Dulbecco's phosphate buffer was removed and thereto was added 1N sodium hydroxide solution to dissolve the cells and the amount of protein was measured by using a part of the resulting solution. The effect on a LDL receptor activity by each compound was determined by calculating the ratio of the amount of fluorescence/the amount of protein, and by subtracting the non-specific uptake amount therefrom and then calculating the control group as 100%.

[2] = tested on: LDL receptor protein; assay: Measurement of an expression of a LDL receptor (immunoblotting, HepG2); assay type: cell-based, human; details: HepG2 cell, test compound at 0.1 and 1 μM, compared to a control group
Method: The activity of potentiating an expression of a LDL receptor by the test compounds were measured using a human hepatic cell line HepG2. Cells were seeded in a 6 well plate at the density of 7.5×10^5 cells/well (at first day). On third days, the medium was changed to a medium containing lipoprotein-deficient serum and the test compound. On forth days, the cells were scraped and collected by a centrifugation. The recovered cells were dissolved in a cell lysate buffer containing 0.1% TritonX-100 and after centrifugation, the supernatant was used as a solution of cell protein. The amount of the LDL-R protein was evaluated by an immunoblotting method using the above-prepared solution of cell protein.
After treating the HepG2 cell with the compound of Example 1-2, the amount of LDL receptor protein was detected by an immunoblotting method.

SMILES | Activity of (%) LDL receptor [1] | amount of a LDL receptor protein [2]
COc1cccc(C2(C(=O)NS(=O)(=O)Oc3c(C(C)C)cccc3C(C)C)CCN(c3ccccc3OC)CC2)c1 [Example 1-2, 2,6-diisopropylphenyl {[1-(2-methoxyphenyl)-4-(3-methoxyphenyl)piperidin-4-yl]carbonyl}sulfamate] | 124% | superior increasing effect
COc1cccc([C@]2(CNS(C)(=O)=O)CC[C@@H](NC3CCN(Cc4ccc(S(C)(=O)=O)cc4)CC3)CC2)c1 [Example 15-2, N-[(cis-1-(3-methoxyphenyl)-4-{1-[4-(methylsulfonyl)-benzyl]piperidin-4-ylamino}cyclohexyl)methyl]methanesulfonamide] | 223% | 
COc1cccc(C2(C(=O)NS(=O)(=O)Oc3c(C(C)C)cccc3C(C)C)CCC(Nc3ccccc3OC)CC2)c1 (stereo not shown) [Example 3-2, 2,6-diisopropylphenyl ({1-(3-methoxyphenyl)-4-[(2-methoxyphenyl)amino]cyclohexyl}carbonyl)sulfamate] | 154% | 
